Data from patent US5639787A, “Therapeutic method for the treatment of cancer” (priority 1995, dated 1997).
Like-named read-outs stand apart in the source and are kept apart here.

What was measured:
clinical [1] = settings: human, in vivo
Excerpt: It is known that ascorbic acid and salts thereof have shown a cytotoxic effect when administered in vitro to tumor cell lines. […] The cytotoxic effect of ascorbic acid is understood to relate to the increased production of intracellular hydrogen peroxide, which is more toxic to tumor cells due to the lower levels of catalase typically present in tumor cells as compared to normal cells. Although some cancers may respond to lower levels, the concentration level of ascorbic acid required for in vitro cytotoxic effectiveness are normally in the range of 5-40 mg/dl with concentrations of 30-40 mg/dl being typical. […] Moreover, since ascorbic acid is readily cleared from the body, the tumor cytotoxic effect, if any, achieved by conventionally administered doses of ascorbic acid would be transitory at best.
The method of the present invention comprises the treatment of cancer by administering sufficient amounts of ascorbic acid to raise the concentration of ascorbic acid in the patient's plasma above a level that is cytotoxic to the cancer tumor cells. The treatment is based on the fact that tumor cells contain between 10 and 100 fold less of the enzyme catalase than normal cells. Catalase converts toxic hydrogen peroxide to non-toxic oxygen and water. This biochemical difference between normal and tumor cells provides a window of opportunity for selective toxicity. It has been known for some time that ascorbate is capable of inducing the intracellular production of hydrogen peroxide. The basis of the present invention is the discovery, through experimentation, that concentrations of ascorbate capable of inducing toxic reactions in tumor cells were achievable in vivo through intravenous infusion of large amounts of ascorbic acid in solution. […] For this reason, it is desirable to exceed the levels required for in vitro cytotoxicity in tumor cells by a wide margin. It is also advantageous to maintain the cytotoxic level of ascorbic acid in the patient's plasma for as long a period of time as is reasonably possible. To achieve such results in patients, the treatment has required intravenous administration of as much as 115 grams of ascorbic acid infused over several hours to achieve an apparently effective level of ascorbic acid. […] Continuous administration of a solution of ascorbic acid maintains the plasma levels despite the bodies ability to clear the ascorbate from the patient's system. Continuation of the treatment over multiple infusions is believed to be desirable. […] The plasma levels of ascorbic acid in patients are routinely and repeatedly monitored throughout the treatment and the amount of ascorbic acid administered is adjusted according to the individual patient's tolerance and the target level of ascorbic acid. Target levels of ascorbic acid are set according to the type of cancer afflicting the patient using in vitro studies of cytotoxicity in similar cell lines. More accurate target levels can be achieved by in vitro experimentation of malignant cells taken from the patient if such are available. A further development of the treatment of the present invention involves the direct testing of the cytotoxic effectiveness of the patient's serum. Serum is drawn during the infusion and either the patient malignant cells, if available, or similar cell lines are exposed to the patient's serum with the effects observed. This direct testing provides information that is used to adjust the amount of ascorbic acid administered to ensure that effective plasma levels have been achieved.
Since, as stated above, there is not a direct translation of in vitro to in vivo results, the level of ascorbic acid within the patient's plasma must be raised to exceed the levels required for in vitro cytotoxicity in tumor cells and maintained at that level for a significant period of time. The patient undergoes an intravenous infusion of ascorbic acid in a medically acceptable aqueous solution such as Ringer's lactate. As an example, Mr. […]

[2] = safety and tolerance of ascorbic acid administration; assay type: in vivo, human
Excerpt: G.; O'Fallon, J. R.; et al. Failure of High Dose Vitamin C (ascorbic acid) to Benefit Patients With Advanced Cancer: A Control Trial. N Engl. J. Med., 1979; 301:687-690 and Mortel, C. G.; Fleming, T. R.; Creagan, E. T.; , et al. High Dose of Vitamin C Versus Placebo In The Treatment of Patients With Advanced Cancer Who Have Had No Prior Chemotherapy. N Engl. J. Med., 1985; 312:137-141. Heretofore the highest dosage understood to be safely administered to a human was approximately 10-15 grams. […] The positive results are believed to have been achieved by means of increased stromal resistance to the invasiveness of the malignancies studied, although the lack of monitoring of the level of ascorbic acid present in the plasma prevents an accurate assessment.
Therefore, the in vitro results are not readily duplicated in vivo and the concentrations of ascorbic acid that are effectively toxic in vitro are not as effective, nor as easy to achieve, in test subjects.
The method of the present invention comprises the treatment of cancer by administering sufficient amounts of ascorbic acid to raise the concentration of ascorbic acid in the patient's plasma above a level that is cytotoxic to the cancer tumor cells. The treatment is based on the fact that tumor cells contain between 10 and 100 fold less of the enzyme catalase than normal cells. Catalase converts toxic hydrogen peroxide to non-toxic oxygen and water. This biochemical difference between normal and tumor cells provides a window of opportunity for selective toxicity. It has been known for some time that ascorbate is capable of inducing the intracellular production of hydrogen peroxide. […] The plasma levels of ascorbic acid in patients are routinely and repeatedly monitored throughout the treatment and the amount of ascorbic acid administered is adjusted according to the individual patient's tolerance and the target level of ascorbic acid. […]

[3] = test system: metastatic carcinoma of the head of the pancreas; test: A person, intravenous ascorbate, tumor on C-T scan; assay type: in vivo, human; settings: six months after diagnosis
Method: Since, as stated above, there is not a direct translation of in vitro to in vivo results, the level of ascorbic acid within the patient's plasma must be raised to exceed the levels required for in vitro cytotoxicity in tumor cells and maintained at that level for a significant period of time. The patient undergoes an intravenous infusion of ascorbic acid in a medically acceptable aqueous solution such as Ringer's lactate. As an example, whose case is described below was administered 115 grams of ascorbic acid in 1000 cc Ringer's lactate, infused over 8 hours. The infusions are continued until resolution of the patient's tumors have been evidenced. Normal diagnosis and classification of the patient's cancer can be used in conjunction with experimental results to predict the target levels of ascorbic acid for an effective treatment. More accurate target levels can be achieved by experimentation on cultured malignant cells taken from the patient if such are available. […] The plasma levels of ascorbic acid in patients are routinely and repeatedly monitored throughout the treatment and the amount of ascorbic acid administered is adjusted according to the individuals tolerance and the target level of ascorbic acid. […]

[4] = test system: metastatic fibrous histiocytoma; test: A person, intravenous ascorbate, chest x-ray; assay type: in vivo, human
Excerpt: Two masses were in the left lung and one mass was in the right lung. All masses measured approximately 2 cm. in diameter.

[5] = test system: patient's tumor cells (metastatic colon carcinoma); test: cells; assay type: cell-based; settings: Homo sapiens, Colon carcinoma cell, read-out: toxic to percent of the patient's tumor cells
Method: (§1) 3 Mr. […] Cancer was discovered during exploratory surgery. Multiple metastases were found on the omentum, transverse and sigmoid colon, and the peritoneum. Biopsy samples from these metastases were obtained during surgery and most of the tumor mass was not removed. A cell culture line was established from the tissue biopsies, and the patient tumor cells were tested to determine the sensitivity of the tumor cells to ascorbic acid. […] A target level of plasma concentration of ascorbic acid was selected at three times the level found to be toxic to the patient's tumor cells. Intravenous ascorbate was begun and the infusion quantity and rate required to achieve and maintain the targeted plasma ascorbic acid concentration of 90 mg/dl was determined. Twenty hour infusions of ascorbate were given three times per week. After four months of therapy, a surgical ileostomy was performed due to chronic diarrhea.

[6] = test system: metastatic colon carcinoma; test: A person, intravenous ascorbate, metastases observed during surgery; assay type: in vivo, human; settings: after four months of therapy
Method: as §1

[7] = test system: metastatic ovarian cancer; test: A person, intravenous ascorbate, cancer antigen CA-125 level; assay type: in vivo, human; settings: throughout intravenous ascorbate therapy, seven months
Method: 4 a person is a person with metastatic ovarian cancer. After six months of standard chemotherapy, a second exploratory surgery was performed, at which time metastases throughout the abdominal cavity were found. The patient was started on intravenous ascorbate infusions at the quantity and rate of flow required to maintain a plasma concentration of 80 mg/dl.

clinical [8] = settings: human, in vivo, iv
Method: (§2) 5 a person was a with metastatic prostate cancer. A baseline blood sample was drawn from the patient and the serum was separated. An intravenous infusion of 105 grams of ascorbate was performed over 5 hours. At the and of the 5 hours another blood sample was taken and again the serum was separated. The pre-infusion serum sample was assayed and found to contain an ascorbic acid concentration of 3.4 mg/dl and the post-infusion serum samples were assayed and found to contain an ascorbic acid concentration of 165 mg/dl. The cytotoxic effectiveness of both serum samples was tested against a line of human prostate tumor cells called "PC-3"from American Type Culture Collection. The PC-3 cells were plated, 3,000 cells per well in plastic 96 well tissue culture plates 24 hours before the blood was taken from the patient above. 100% and 50% (diluted with complete culture medium, DMEM) serum solutions from both samples were added to 16 wells each of the PC-3 cells which had been plated earlier. After a five day incubation, the number of surviving tumor cells in the wells containing the 100% and 50% solutions of the post-infusion serum sample was compared to the number of surviving tumor cells in the wells containing the 100% and 50% solutions of the pre-infusion serum sample and the percent survival was calculated as follows: […]

[9] = test system: PC-3 human prostate tumor cells; test: cells; assay type: cell-based; settings: PC-3, 120 h
Method: as §2

[10] = humans; cited from earlier work
cancer = settings: high doses of ascorbic acid; two published trials; cited from earlier work
tumor cell lines = settings: cited from earlier work
[11] = cited from earlier work
[12] = test system: intracellular adhesion molecule-1 (ICAM-1); settings: cited from earlier work

**Q.** With `O=C1O[C@H]([C@@H](O)CO)C(O)=C1O` [ascorbic acid] as the compound, how does the concentration at 1 h (clinical [1]; iv) read?
**A.** 1580 µg/mL

**Q.** And the concentration at 5 h (clinical [1]; iv)?
**A.** 1850 µg/mL

**Q.** What about the plasma concentration maintained (clinical [1]; iv) of the same compound?
**A.** 80 mg/dL

**Q.** And the “plasma level of ascorbate achieved” value (clinical [1]; iv)?
**A.** exceeding 150 mg/dl

**Q.** What about the “plasma levels of ascorbate achieved” value (clinical [1]; iv) of the same compound?
**A.** 110 mg/dL

**Q.** And the “targeted plasma ascorbic acid concentration achieved and maintained” value (clinical [1]; iv)?
**A.** 90 mg/dL

**Q.** What about the “levels of ascorbic acid between infusions” value (clinical [1]; po) of the same compound?
**A.** found to avoid abnormally low levels of ascorbic acid between infusions

**Q.** What about the detrimental side effects ([2]; A person, 39 8 hour infusions, 57.5 to 115 grams per infusion, 13 weeks) of the same compound?
**A.** without reported detrimental side effects

**Q.** And the “depletion of minerals and other substances” value ([2]; ascorbic acid infusion process)?
**A.** depletion of certain minerals and other substances

**Q.** What about the detrimental side effects ([2]; intravenous infusion of large amounts (as much as 115 grams over several hours)) of the same compound?
**A.** without reported detrimental side effects

**Q.** And the “tumor seen on C-T scan” value [3]?
**A.** no detectable tumor

**Q.** And the “right lung mass, chest x-ray” value ([4]; after seven months of therapy)?
**A.** disappeared

**Q.** And the “diameter of regressed left lung mass” value ([4]; after seven months, initially approximately 2 cm in diameter)?
**A.** about 1 cm

**Q.** What about the “left lung mass which had regressed” value ([4]; after twelve months of therapy) of the same compound?
**A.** completely resolved

**Q.** What about the “size of the remaining left lung metastasis” value ([4]; after twelve months of therapy) of the same compound?
**A.** no change

**Q.** What about the “left lung mass, chest x-ray” value ([4]; one of the left lung masses, after seven months of therapy) of the same compound?
**A.** decreased in size (to about 1 cm) with decreased radio-opacity

**Q.** And the cytotoxicity at 300 µg/mL [5]?
**A.** 100%

**Q.** And the “multiple metastases, size and consistency” value [6]?
**A.** decreased significantly in size and have a flaccid consistency

**Q.** And the “level of cancer antigen CA-125” value [7]?
**A.** returned to normal and remained within normal limits

**Q.** What about the “ascorbic acid concentration in serum” value (clinical [8]) of the same compound?
**A.** 3.4 mg/dL

**Q.** And the concentration at 5 h (clinical [8])?
**A.** 1650 µg/mL

**Q.** What about the viability at 1650 µg/mL ([9]; read-out: percent tumor cell survival, post-infusion serum (165 mg/dl ascorbic acid), 50% serum, five days) of the same compound?
**A.** 15%

**Q.** And the viability at 1650 µg/mL ([9]; read-out: percent tumor cell survival, post-infusion serum (165 mg/dl ascorbic acid), 100% serum, five days)?
**A.** 19%

**Q.** What about the viability at 34 µg/mL ([9]; read-out: percent tumor cell survival, preinfusion serum (3.4 mg/dl ascorbic acid), 50% serum, five days, reference) of the same compound?
**A.** 100%

**Q.** What about the viability at 34 µg/mL ([9]; read-out: percent tumor cell survival, preinfusion serum (3.4 mg/dl ascorbic acid), 100% serum, five days, reference) of the same compound?
**A.** 100%

**Q.** What about the “normal plasma levels of ascorbic acid” value [10] of the same compound?
**A.** 0.39 to 1.13 mg/dL

**Q.** And the “benefit to patients with advanced cancer” value (cancer)?
**A.** failure of high doses of ascorbic acid to have the desired effect in the treatment of cancer

**Q.** And the “effect of exposure to plasma on cytotoxic effect” value (tumor cell lines; exposure to plasma)?
**A.** diminished, to varying degrees

**Q.** And the “concentration level of ascorbic acid required for in vitro cytotoxic effectiveness” value (tumor cell lines; normally in the range)?
**A.** 5 to 40 mg/dL

**Q.** And the “concentration level of ascorbic acid required for in vitro cytotoxic effectiveness, typical” value (tumor cell lines; typical concentrations)?
**A.** 30 to 40 mg/dL

**Q.** What about the “highest dosage understood to be safely administered to a human” value ([11]; human, before the invention) of the same compound?
**A.** 10-15 grams

**Q.** And the “tumor necrosis and hemorrhage” value ([11]; rare cases of extreme tumor sensitivity to ascorbic acid, fatal)?
**A.** rare instances of wide-spread tumor necrosis and hemorrhage

**Q.** With hyaluronic acid as the compound, how does the “binding by ICAM-1” value [12] read?
**A.** preferentially bound
